ChEMBL document CHEMBL1136106, “Synthesis and biological activities of 1-pyridylisoquinoline and 1-pyridyldihydroisoquinoline derivatives as PDE4 inhibitors” (Bioorg Med Chem Lett, 2003)

How the values were obtained:
[1] = species on record: Mus musculus; assay: Inhibition of LPS-induced TNF-alpha production in mice after 30 min peroral dose; type: functional; conditions: po, 0.5 h
[2] = molecular target: T1, Phosphodiesterase 4 (Homo sapiens, UniProt P27815+Q08499+Q07343+Q08493); assay: Inhibition of phosphodiesterase 4; type: protein assay
[3] = molecular target: T1, Phosphodiesterase 4; assay: Inhibition of rolipram binding to phosphodiesterase 4; type: protein assay

SMILES | IC50 [2] [nM] | Ki [3] [nM] | ED50 [1] [mg/kg]
COc1ccc(C(=O)Nc2c(Cl)cncc2Cl)cc1OC1CCCC1 | – | – | 0.72
COc1cc2cc(CO)c(CO)c(-c3ccnc(-n4nc(-c5cccnc5)c5ccccc5c4=O)c3)c2cc1OC.Cl | 0.7 | – | 1.2
COc1cc2cc(CO)nc(-c3ccnc(-n4nc(-c5nccs5)c5ccccc5c4=O)c3)c2cc1OC.Cl | 0.3 | 1.7 | 0.26
COc1cc2nc(CO)c(CO)c(-c3ccnc(-n4nc(-c5cccnc5)c5ccccc5c4=O)c3)c2cc1OC.Cl | 70 | 120 | –
COc1cc2cc(CO)nc(-c3ccnc(-n4nc(-c5cccs5)c5ccccc5c4=O)c3)c2cc1OC.Cl | 0.3 | 1.4 | 1.6
COc1cc2cc(CO)nc(-c3ccnc(-n4nc(-c5cccnc5)c5ccccc5c4=O)c3)c2cc1OC.Cl | 0.6 | 1.4 | –
COc1ccc(C2CNC(=O)C2)cc1OC1CCCC1 (stereo not drawn) [ROLIPRAM] | – | – | 2.6

Now from value to compound, other results behind:

IC50 [2] [nM] | Ki [3] [nM] | SMILES | ED50 [1] [mg/kg]
1 | 6.5 | COc1cc2c(cc1OC)C(c1ccnc(-n3nc(-c4cccnc4)c4ccccc4c3=O)c1)=N[C@H](CO)C2.Cl | 0.52
0.5 | 1.8 | COc1cc2c(cc1OC)C(c1ccnc(-n3ccc4c(OCCN5CCOCC5)cccc4c3=O)c1)=N[C@H](CO)C2.Cl | 0.13
2 | 3.1 | COc1cc2c(cc1OC)C(c1ccnc(-n3nc(Cc4cccnc4)c4ccccc4c3=O)c1)=N[C@H](CO)C2.Cl | –
– | 3 | COc1cc2cc(CO)cc(-c3ccnc(-n4nc(-c5cccnc5)c5ccccc5c4=O)c3)c2cc1OC.Cl | –
3 | 5.4 | COc1cc2c(cc1OC)C(c1ccnc(-n3nc(-c4cncnc4)c4ccccc4c3=O)c1)=N[C@H](CO)C2.Cl | –
0.4 | 1.5 | COc1cc2c(cc1OC)C(c1ccnc(-n3ccc4c(OCc5cccnc5)cccc4c3=O)c1)=N[C@H](CO)C2.Cl | 2.4
